The source of these data is the NIST ThermoML archive (doi:10.1021/je1012857).

The conditions of this series: 298.15 K, 101.33 kPa, Liquid; for viscosity: Capillary tube (Ostwald / Ubbelohde) method; for speed of sound: Sing-around technique in a fixed-path interferometer.

Numbers after ± are expanded uncertainties.

As to `CC(C)CO` [2-methyl-1-propanol], the mass density is 798.104 ± 1 kg/m3, the viscosity amounted to 3.307 ± 0.025 mPa·s and the speed of sound is listed as 1188.8 ± 1.3 m/s.

Turning to `CCCCO` [butan-1-ol], the mass density was 805.953 ± 0.47 kg/m3, the viscosity came to 2.565 ± 0.016 mPa·s and the speed of sound is recorded as 1241.1 ± 1 m/s.

For `NCCN` [ethane-1,2-diamine], the mass density amounted to 892.389 ± 0.75 kg/m3, the viscosity was 1.405 ± 0.012 mPa·s and the speed of sound is given as 1671.6 ± 1.4 m/s.

Take `CC(C)O` [propan-2-ol]: the mass density was 781.051 ± 0.51 kg/m3, the viscosity was 2.063 ± 0.013 mPa·s and the speed of sound is reported as 1140.4 ± 0.9 m/s.
